From PubChem BioAssay AID1259407 (Chemical Carcinogenesis Research Information System (CCRIS), 2018) come the findings set out here.

Activity calls are given as the source filed them. No rule for the calls is given here.

The subject of the data set is CCRIS mutagenicity, Ames/micronucleus/aberration tests. In words: CCRIS mutagenicity studies.
Setting [1] is: Test System: AMES SALMONELLA TYPHIMURIUM, Strain/Indicator: TA98, Metabolic Activation: NONE, Method: PREINCUBATION
Setting [2] is: Test System: AMES SALMONELLA TYPHIMURIUM, Strain/Indicator: TA98, Metabolic Activation: NONE, Method: STANDARD PLATE.
The mark [3] stands for this setting: Test System: AMES SALMONELLA TYPHIMURIUM, Strain/Indicator: TA100, Metabolic Activation: NONE, Method: STANDARD PLATE.
The mark [4] stands for this setting: Test System: AMES SALMONELLA TYPHIMURIUM, Strain/Indicator: TA1535, Metabolic Activation: NONE, Method: STANDARD PLATE.
The mark [5] stands for this setting: Test System: AMES SALMONELLA TYPHIMURIUM, Strain/Indicator: TA1537, Metabolic Activation: NONE, Method: STANDARD PLATE.
Setting [6] is: Test System: AMES SALMONELLA TYPHIMURIUM, Strain/Indicator: TA1538, Metabolic Activation: NONE, Method: STANDARD PLATE.

For the compound `CCC/C=C(/C=O)CC`, the mutagenic call is, setting by setting: (Test System: AMES SALMONELLA TYPHIMURIUM, Strain/Indicator: TA97, Metabolic Activation: HAMSTER, LIVER, S-9, AROCLOR 1254 (10 OR 30%), Method: PREINCUBATION) “inactive; negative”; (Test System: AMES SALMONELLA TYPHIMURIUM, Strain/Indicator: TA97, Metabolic Activation: NONE, Method: PREINCUBATION) “inactive; negative”; (Test System: AMES SALMONELLA TYPHIMURIUM, Strain/Indicator: TA97, Metabolic Activation: RAT, LIVER, S-9, AROCLOR 1254 (10 OR 30%), Method: PREINCUBATION) “inactive; negative”; (Test System: AMES SALMONELLA TYPHIMURIUM, Strain/Indicator: TA98, Metabolic Activation: HAMSTER, LIVER, S-9, AROCLOR 1254 (10 OR 30%), Method: PREINCUBATION) “inactive; negative”; under setting [1], “inactive; negative”; (Test System: AMES SALMONELLA TYPHIMURIUM, Strain/Indicator: TA98, Metabolic Activation: RAT, LIVER, S-9, AROCLOR 1254 (10 OR 30%), Method: PREINCUBATION) “inactive; negative”. For the same compound, the mutagenic call runs as follows: (Test System: AMES SALMONELLA TYPHIMURIUM, Strain/Indicator: TA100, Metabolic Activation: HAMSTER, LIVER, S-9, AROCLOR 1254 (10 OR 30%), Method: PREINCUBATION) “inactive; negative”; (Test System: AMES SALMONELLA TYPHIMURIUM, Strain/Indicator: TA100, Metabolic Activation: NONE, Method: PREINCUBATION) “inactive; negative”; (Test System: AMES SALMONELLA TYPHIMURIUM, Strain/Indicator: TA100, Metabolic Activation: RAT, LIVER, S-9, AROCLOR 1254 (10 OR 30%), Method: PREINCUBATION) “inactive; negative”; (Test System: AMES SALMONELLA TYPHIMURIUM, Strain/Indicator: TA1535, Metabolic Activation: HAMSTER, LIVER, S-9, AROCLOR 1254 (10 OR 30%), Method: PREINCUBATION) “inactive; negative”; (Test System: AMES SALMONELLA TYPHIMURIUM, Strain/Indicator: TA1535, Metabolic Activation: NONE, Method: PREINCUBATION) “inactive; negative”; (Test System: AMES SALMONELLA TYPHIMURIUM, Strain/Indicator: TA1535, Metabolic Activation: RAT, LIVER, S-9, AROCLOR 1254 (10 OR 30%), Method: PREINCUBATION) “inactive; negative”.

Take `O=[N+]([O-])c1c(-c2ccc(Cl)cc2)nc2sccn12`: the mutagenic call was “active; positive” under setting [2]; “inactive; negative” under setting [3]; “inactive; negative” under setting [4]; “active; positive” under setting [5]; “active; positive” under setting [6].

Take `[Br][Pb][Br]`: the mutagenic call is “active; positive” (Test System: AMES SALMONELLA TYPHIMURIUM, Strain/Indicator: TA1535, Metabolic Activation: NONE) and “inactive; negative” (Test System: AMES SALMONELLA TYPHIMURIUM, Strain/Indicator: TA1537, Metabolic Activation: NONE).

As for `CCCCOC(=O)C=Cc1ccc([N+](=O)[O-])o1`, the mutagenic call under setting [1] is “active; positive”.

For the compound `CC(=O)Nc1ccc(Cc2ccc(N)cc2)cc1`, the mutagenic call under setting [2] is “inactive; negative”; the mutagenic call (Test System: AMES SALMONELLA TYPHIMURIUM, Strain/Indicator: TA98, Metabolic Activation: RAT, LIVER, S-9, PCB, Method: STANDARD PLATE) is “inactive; negative”; the mutagenic call under setting [3] is “inactive; negative”; the mutagenic call (Test System: AMES SALMONELLA TYPHIMURIUM, Strain/Indicator: TA100, Metabolic Activation: RAT, LIVER, S-9, PCB, Method: STANDARD PLATE) is “inactive; negative”.

Take `O=C(O[C@@H]1Cc2c(O)cc(O)cc2O[C@H]1c1ccc(O)c(O)c1)c1cc(O)c(O)c(O)c1`: the mutagenic call reads like this: (Test System: Ames Salmonella typhimurium, Strain/Indicator: TA102, Metabolic Activation: None, Method: Preincubation) “inactive; negative”; (Test System: Ames Salmonella typhimurium, Strain/Indicator: TA102, Metabolic Activation: Rat, Liver, S-9, Aroclor 1254 in 0.154 M KCl, Method: Preincubation) “inactive; negative”.

Turning to `CCN(CCCl)CCCNc1c2ccccc2nc2c1ccc1ccccc12`, the mutagenic call was “active; positive” under setting [2]; “active; positive” under setting [3]; “inactive; negative” under setting [4]; “active; positive” (Test System: AMES SALMONELLA TYPHIMURIUM, Strain/Indicator: TA1536, Metabolic Activation: NONE, Method: STANDARD PLATE); “active; positive” under setting [5]; “active; positive” under setting [6]. For the same compound, for the setting “Test System: CHO/HGPRT, Strain/Indicator: CHO-K1-BH4, Metabolic Activation: NONE, Method: STANDARD PLATE”, the mutagenic call is “active; positive”.

As to `CN(C)c1ccc(N=Nc2ccc3ccccc3c2)cc1`, the mutagenic call runs as follows: (Test System: AMES SALMONELLA TYPHIMURIUM, Strain/Indicator: TA98, Metabolic Activation: HAMSTER, LIVER, S-9, AROCLOR 1254, Method: STANDARD PLATE) “active; positive”; (Test System: AMES SALMONELLA TYPHIMURIUM, Strain/Indicator: TA98, Metabolic Activation: HAMSTER, LIVER, S-9, Method: PREINCUBATION (PRIVAL METHOD)) “active; positive”; (Test System: AMES SALMONELLA TYPHIMURIUM, Strain/Indicator: TA98, Metabolic Activation: RAT, LIVER, S-9, AROCLOR 1254, HAMSTER, LIVER, S-9, AROCLOR 1254, Method: STANDARD PLATE) “active; positive”; (Test System: AMES SALMONELLA TYPHIMURIUM, Strain/Indicator: TA100, Metabolic Activation: HAMSTER, LIVER, S-9, Method: PREINCUBATION (PRIVAL METHOD)) “active; positive”; (Test System: AMES SALMONELLA TYPHIMURIUM, Strain/Indicator: TA1538, Metabolic Activation: RAT, LIVER, S-9, AROCLOR 1254, HAMSTER, LIVER, S-9, AROCLOR 1254, Method: STANDARD PLATE) “active; positive”; (Test System: MOUSE LYMPHOMA, Strain/Indicator: L5178Y (TK+/TK-), Metabolic Activation: RAT, LIVER, S-9, AROCLOR 1254, Method: SUSPENSION/PLATE) “active; positive. reevaluation of results: positive”. Where the note is “Test System: Mouse lymphoma, Strain/Indicator: L5178Y (tk+/tk-), Metabolic Activation: None, Method: Suspension/plate”, the mutagenic call was “inactive; negative”.

On to `Oc1cc2ccccc2c2ccc3ccccc3c12`, for which the mutagenic call under setting [2] is “inactive; negative”; the mutagenic call (Test System: AMES SALMONELLA TYPHIMURIUM, Strain/Indicator: TA98, Metabolic Activation: RAT, LIVER, S-9, AROCLOR 1254, Method: STANDARD PLATE) was “inactive; negative”; the mutagenic call under setting [3] is “inactive; negative”; the mutagenic call (Test System: AMES SALMONELLA TYPHIMURIUM, Strain/Indicator: TA100, Metabolic Activation: RAT, LIVER, S-9, AROCLOR 1254, Method: STANDARD PLATE) was “inactive; negative”.
